# ChEMBL document CHEMBL3301555, “MMV Malaria Box screening in pLDH viability assay against Plasmodium falciparum gametocytes”
# Test system: Plasmodium falciparum
# Test: MMV: Measure of pLDH activity as indication of parasite viability. Gametocytogenesis of 3D7 Plasmodium falciparum strain was induced in vitro and asexual parasites were depleted with N-acetylglucosamine. Gametocytes were treated with dihydroartemisinin, epoxomicin, methylene blue, primaquine, puromycin or chloroquine in 96-well plates and the pLDH activity was evaluated using a modified Makler protocol. Mosquito infectivity was measured by the standard membrane feeding assay.
# Format: functional
# Set-up: concentration or dose not given beside the values
row,SMILES,Growth Inhibition [%]
1,CCN1CCCC1CNc1[nH]cnc2c3cc(Cl)ccc3nc1-2 (centres undefined),8.5536
2,COc1ccc(-c2c(C)nn3c(N)c(C#N)cnc23)cc1OC,32.2252
3,CSC1=NC(=Nc2c(C)cccc2C)C2(CCC(C(C)(C)C)CC2)N1c1ccc(Cl)cc1 (centres undefined),-2.9236
4,C[n+]1c2ccccc2nc2ccc(NCCO)cc21,16.8202
5,Cc1cc(C)cc(Nc2cc(C)nc3nc(C(F)(F)F)nn23)c1,-10.2568
6,O=C(NCC(c1ccsc1)N1CCCCCC1)c1ccc(C(F)(F)F)cc1 (centres undefined),-3.1098
7,COc1ccc(-c2cc3c(SCC(=O)Nc4cc(C(F)(F)F)ccc4Cl)nccn3n2)cc1,0.117
8,Cc1ccc(-c2cc3c(SCC(=O)Nc4cc(C(F)(F)F)ccc4Cl)nccn3n2)cc1,-10.2658
9,CCN(CC)CCNc1ncnc2c1[nH]c1ccc(Cl)cc12,10.0038
10,CCOC(=O)c1cnc2ccc(CC)cc2c1O,41.8585
11,Cc1ccc(-c2cc3c(nn2)-c2ccccc2C3=O)cc1,32.1362
12,CCN(CC)CCNc1ccnc2cc(Cl)ccc12,9.9324
13,CCCCCC(=O)N1c2ccccc2N=C2CC(c3ccc(OC)c(OC)c3)CC(O)=C2C1c1ccc(C(F)(F)F)cc1 (centres undefined),33.4948
14,Cc1cc(Nc2ccc3ccccc3c2)n2ncnc2n1,-5.4308
15,Cc1cc(NCCN2CCCCC2)c2ccc3ccccc3c2n1,17.8584
16,COc1ccc(-n2ccnc2SCC(=O)Nc2cc(C)ccc2C)c(OC)c1,2.884
17,CCN1CCN(Cc2ccc(NC(=O)c3cc4ccc5cccnc5c4[nH]3)cc2)CC1,4.9364
18,COc1ccc(-c2nc(NC(=O)CS(=O)(=O)c3ccc(F)cc3)sc2C)cc1,30.52
19,O=C(NCc1ccco1)C1CCN(S(=O)(=O)c2ccc(Cl)cc2)CC1,3.8942
20,O=C(O)C1Cc2c([nH]c3ccccc23)C(c2ccc(Cl)cc2Cl)N1 (centres undefined),8.0448
21,c1ccc(-c2ccc(-c3nc4ccccc4[nH]3)cc2)cc1,7.2118
22,CCC(C)NCC(O)(c1ccc(Cl)cc1)c1ccc(Cl)cc1 (centres undefined),29.3926
23,Cc1ccc(N2C(=O)C3C(C2=O)C2(c4ccccc4)C(=O)C3(c3ccccc3)C(c3ccccc3)=C2c2ccccc2)cc1 (centres undefined),4.6846
24,CCc1c(C)c(=N)c2ccccc2n1C.I,-4.4994
25,CCOC(=O)c1cn(CC)c2cc(N(C)CCc3ccc(OC)c(OC)c3)c(F)cc2c1=O,25.5006

row,SMILES,Growth Inhibition [%]
1,CCC(c1ccccc1)c1nn2c(-c3cccs3)nnc2s1 (centres undefined),4.041
2,CC(C)(C)c1ccc(O)c(CNC2CCCCC2)c1,30.335
3,O=[N+]([O-])c1ccc(C=NNc2nc3ccccc3[nH]2)cc1,-2.3354
4,CCOc1cc2c(cc1OCC)C(c1cc(OC)c(O)cc1Cl)NCC2 (centres undefined),24.0654
5,CC1CN(C(=O)c2sc3ccccc3c2Cl)CC(C)O1 (centres undefined),1.741
6,COCCNC(=O)c1ccc(OC2CCN(Cc3ccc(F)c(F)c3)CC2)c(Cl)c1,5.6964
7,CN(C)c1ccc(C=Cc2nc(=O)c3ccccc3o2)cc1,1.8448
8,COc1ccc(C2=C(c3ccc(OC)cc3)C3(c4ccccc4)C(=O)C2(c2ccccc2)C2C(=O)N(c4ccc(C)cc4)C(=O)C23)cc1 (centres undefined),-4.8036
9,CCOC(=O)c1c(NC(=O)c2ccccc2)sc2c(O)c(CN(CC)CC)ccc12,35.4934
10,CCOC(=O)C1=C(c2ccccc2)N=c2sc(=Cc3cc(C)n(-c4ccc(F)cc4)c3C)c(=O)n2C1c1cccc(OC)c1OC (centres undefined),-7.255
11,CCC1(C)CC(CCNCc2ccccc2O)(c2ccc(C)cc2)CCO1 (centres undefined),26.52
12,O=C(CCc1ccco1)NC1CCN(CC2(c3ccc(Cl)cc3)CCC2)CC1,18.8072
13,OC(CNC1CCCCC1)Cn1c2ccccc2c2ccccc21 (centres undefined),33.5526
14,Cc1cc(Nc2ccc(C)c(Cl)c2)n2nc(C(F)(F)F)nc2n1,1.818
15,COc1cccc(C=Cc2nc(=O)c3ccccc3o2)c1OC,2.1344
16,CCCN(CCC)CC(O)COc1ccccc1C(=O)Nc1ccccc1 (centres undefined),34.3502
17,Fc1ccc2[nH]c3c(NCCCN4CCOCC4)ncnc3c2c1,3.632
18,COc1ccc(C(=O)Nc2nonc2-c2ccc(OC)c(OC)c2)cc1Cl,7.9826
19,COCCN(C(=O)Cc1cccs1)C(C(=O)NCc1ccc(OC)cc1)c1ccc(C(C)C)cc1 (centres undefined),12.1412
20,COc1ccc(C=C2SC(=N)N(c3ccccc3OC)C2=O)cc1,26.57
21,COc1ccc(NC(=O)C2c3ccccc3C(=O)N(CC(C)C)C2c2cccs2)cc1Cl (centres undefined),14.3436
22,CCOC(=O)c1c(C)n(-c2ccc(Cl)cc2)c2ccc(OC(=O)C=Cc3ccccc3)cc12,-3.2706
23,COc1ccc2c(c1)OC(O)(C(F)(F)C(F)(F)F)CC2=O (centres undefined),11.5806
24,FC(F)(F)c1cccc(CNC2CCN(CCc3ccccc3)CC2)c1,12.4718
25,Oc1ccc(Cl)cc1CNc1nc2ccccc2[nH]1,5.249

row,SMILES,Growth Inhibition [%]
1,CCOc1cc(Cl)c(C(C)NC(=O)c2ccccc2)cc1OCC (centres undefined),3.3956
2,C=CC12CCN(CC1)C(C(O)c1ccnc3ccc(OC)cc13)C2.Cl (centres undefined),15.913
3,Cc1ccc(-c2cc3nc4c(c(O)n3n2)CCCC4)cc1,9.811
4,O=C(c1ccccc1F)N(Cc1ccc(Cl)cc1)c1ccccn1,9.2554
5,Cc1cccc(Nc2nc(N)c3ccccc3n2)c1.Cl,-0.3732
6,CCn1c(CN2CCN(Cc3ccccc3)CC2)nc2cc(NC(=O)c3cccs3)ccc21,17.812
7,COc1ccccc1CNC(=O)CCn1c(=O)[nH]c2ccccc2c1=O,-1.4414
8,O=C(Nc1ccc(Cl)cc1)N1CCN(c2ccc3nncn3n2)CC1,-0.5422
9,c1ccc2cc3c(Nc4ccc(N5CCOCC5)cc4)ccnc3cc2c1,12.7974
10,CCCCNCC(O)(c1ccc(Cl)cc1)c1ccc(Cl)cc1,33.502
11,Cc1cc(C)c2c(c1)OCN(Cc1ccccc1Cl)C2,32.69
12,COc1cc(OC)c(N(C)C(=O)c2cc3c(s2)-c2ccccc2S(=O)(=O)C3)cc1Cl,6.301
13,CCOC(=O)c1cn(CC)c2cc(N3CCCCC3)c(F)cc2c1=O,27.8444
14,CCCc1cc(O)c2c3c(c(=O)oc2c1)CN(C)CC3,31.2868
15,Cc1cc(NC(=O)C2c3ccccc3C(=O)N(CC(C)C)C2c2cccs2)no1 (centres undefined),21.7574
16,Cl.Oc1ccccc1CNCC12CC3CC(CC(C3)C1)C2,28.0055
17,CNCCCNc1ccnc2cc(Cl)ccc12,-4.352
18,COc1ccccc1CNC(=O)CCn1c(=O)[nH]c2ccsc2c1=O,-5.0228
19,COc1ccc(Br)cc1C1Nc2ccc3ccccc3c2C2=C1C(=O)CC(c1ccccc1)C2 (centres undefined),7.0344
20,Cc1cc(C=C2SC(=Nc3ccccc3)N(C3CCCC3)C2=O)c(C)n1-c1ccc(Cl)cc1,-0.992
21,CCn1c(SCC(=O)Nc2cc(C(F)(F)F)ccc2Cl)nc2ccccc2c1=O,-1.2952
22,Cc1ccc(Cn2c(N3CCC(C(=O)NCc4cccs4)CC3)nc3ccccc32)cc1,-1.5746
23,CC1CCN(Cc2ccc(NC(=O)c3cc4ccc5cccnc5c4[nH]3)cc2)CC1,2.4882
24,O=C(Nc1ccc(Cl)cc1C(=O)Nc1ccncc1)c1ccc(Cl)cc1Cl,4.844
25,CCOc1cccc2sc(N(Cc3cccnc3)C(=O)C3CCCCC3)nc12,1.8442

row,SMILES,Growth Inhibition [%]
1,CCOc1ccc(-c2nonc2NC(=O)c2cccc(C)c2)cc1OCC,30.014
2,CCc1ccc(Nc2cc(C)c3ccc(O)cc3n2)cc1.Cl,27.662
3,COc1ccc2c(=O)cc(C(Cl)(Cl)Cl)oc2c1,12.9182
4,CC(C)(C)CC(C)(C)NCC(O)COc1ccc2c(c1)CCC2.Cl (centres undefined),14.2274
5,CCOc1ccc(/C=C/c2nc(=O)c3ccccc3o2)cc1,7.7706
6,O=C(Nc1ccccc1O)c1ccc(-c2ccc(Cl)cc2Cl)o1,15.81
7,O=C(Nc1nc(-c2ccccn2)cs1)c1ccccc1Br,29.0858
8,CC(O)(c1ccc(Cl)cc1)C(CN1CCCCC1)c1ccccc1.Cl (centres undefined),18.9754
9,CCCCc1ccc(NS(=O)(=O)c2cc3c4c(c2)CCN4C(=O)CC3)cc1,-1.4264
10,CCOc1ccccc1CNC(=O)C1c2ccccc2C(=O)N(CC(C)C)C1c1cccs1 (centres undefined),7.24
11,COc1ccc(-c2nc3cc(Cc4ccc5[nH]c(-c6ccc(OC)cc6)nc5c4)ccc3[nH]2)cc1,4.7376
12,CCOC(=O)c1ccc2nc(-c3ccccc3)cc(O)c2c1,40.6125
13,Cc1cc(Nc2ccc(Cl)cc2)n2nc(C(F)(F)F)nc2n1,7.7522
14,COc1ccc(C(C)=O)cc1N1C(=O)C2C(C1=O)C1(c3ccccc3)C(=O)C2(c2ccccc2)C(c2ccc(C)cc2)=C1c1ccc(C)cc1 (centres undefined),-2.6232
15,CCCCCCOC(=O)C1=C(C)NC(=O)NC1c1ccccc1F (centres undefined),6.2916
16,COc1ccc(C2Sc3ccccc3N=C3C2=C(O)c2ccccc23)cc1 (centres undefined),-5.7444
17,Cc1ccc(N2C3c4ccccc4N(S(=O)(=O)c4ccc(C)cc4)C2c2ccccc2N3S(=O)(=O)c2ccc(C)cc2)cc1,-2.5084
18,CCCc1c(CC)c(=N)c2ccccc2n1C,4.7322
19,CCN(CC)CCCNc1nc(-c2ccc(Cl)cc2)nc2ccccc12,7.9964
20,Cc1ccc(Nc2nc(NCCO)c3ccccc3n2)cc1C,11.5812
21,CC1CCCCN1CCCNC(=O)c1ccc2c(c1)sc1nc(-c3ccc(F)cc3)cn12 (centres undefined),16.9994
22,CCOC(=O)c1cnc2c(C)cc(C)cc2c1Nc1ccc(OC)c(OC)c1,-11.2088
23,COc1ccc(NC(=O)C2c3ccccc3C(=O)N(CC(C)C)C2c2cccs2)cc1 (centres undefined),28.379
24,c1ccc(Cn2c(N=Nc3c(Nc4ccccc4)ccc4ccccc34)nc3ccccc32)cc1,28.0754
